Laboratory results published in patent publication US7462600B2, “Macrolides” (Pfizer Inc, priority 2004, dated 2008).
Converted amounts (≈) assume the structure as drawn. Where two headings read alike, the source gives them in different places.

Assays:
Assay type in all cases: cell-based
[1] = tested on: Streptococcus pneumoniae 1095; conditions: microtiter broth dilution
In short: (§1)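 Compounds were first dissolved in DMSO (40 mg/ml stock), then tested by broth dilution in microtiter trays. MICs were interpreted using the 14th Informational Supplement (M100-S14) criteria.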

[2] = tested on: Streptococcus pneumoniae 1175; conditions: microtiter broth dilution
In short: as §1

[3] = tested on: Streptococcus pneumoniae 1016; assay: MIC, microtiter broth dilution (NCCLS M100-S14), S. pneumoniae 1016 (susceptible)
In short: as §1

[4] = tested on: Streptococcus pyogenes 1079; assay: MIC, microtiter broth dilution (NCCLS M100-S14), S. pyogenes 1079 (ermB)
In short: as §1

[5] = tested on: Haemophilus influenzae 1218; assay: MIC, microtiter broth dilution (NCCLS M100-S14), H. influenzae 1218 (susceptible)
In short: as §1

[6] = S. pneumoniae 1016 (susceptible)
[7] = H. influenzae 1218 (susceptible)

SMILES	MIC S. pneumo. 1095 ([1]; Streptococcus pneumoniae 1095)	MIC S. pneumo. 1175 ([2]; Streptococcus pneumoniae 1175)	MIC S. pneumo. 1016 ([3]; Streptococcus pneumoniae 1016)	MIC S. pyogenes 1079 ([4]; Streptococcus pyogenes 1079)	MIC H. influenzae 1218 ([5]; Haemophilus influenzae 1218)	MIC S. pneumo. 1095 ([1]; S. pneumoniae 1095 (ermB))	MIC S. pneumo. 1175 ([2]; S. pneumoniae 1175 (mefA))	MIC S. pneumo. 1016 [3, 6]	MIC S. pyogenes 1079 ([4]; S. pyogenes 1079 (ermB))	MIC H. influenzae 1218 [5, 7]
CC[C@H]1OC(=O)[C@H](C)[C@@H](OC(=O)N2CCCC2)[C@H](C)[C@@H](O[C@@H]2O[C@H](C)C[C@H](N(C)C)[C@H]2O)[C@](C)(OC)C[C@@H](C)C(=O)[C@H](C)[C@H]2N(CC3CN(Cc4nccc5ccccc45)C3)C(=O)O[C@]12C [Example 5.09, 2-R^2: (isoquinolin-1-yl)methyl; R^#: pyrrolidin-1-yl]	1 µg/mL (≈ 1.08 µM)	<0.06 µg/mL	<0.06 µg/mL	64 µg/mL (≈ 69.4 µM)	2 µg/mL (≈ 2.17 µM)	–	–	–	–	–
CCC1OC(=O)C(C)C(=O)C(C)C(OC2OC(C)CC(N(C)C)C2O)C(C)(OC)CC(C)C(=O)C(C)C2N(C3CN(S(=O)(=O)c4cccc(Oc5ccc(F)cc5)c4)C3)C(=O)OC12C (centres unmarked) [Example 3.110, 3-descladinosyl-11,12-dideoxy-6-O-methyl-3-oxo-12,11-(oxycarbonyl-(1-(3-(4-fluorophenoxy)benzene-1-sulfonyl)-azetidin-3-yl)-imino)erythromycin A]	<0.063 µg/mL	<0.063 µg/mL	<0.063 µg/mL	4 µg/mL (≈ 4.36 µM)	2 µg/mL (≈ 2.18 µM)	–	–	–	–	–
CCC1OC(=O)C(C)C(=O)C(C)C(OC2OC(C)CC(N(C)C)C2O)C(C)(OC)CC(C)C(=O)C(C)C2N(C3CN(S(=O)(=O)c4ccc(S(C)(=O)=O)cc4)C3)C(=O)OC12C (centres unmarked) [Example 3.23, 4-(methylsulfonyl) benzenesulfonyl]	0.25 µg/mL (≈ 0.282 µM)	<0.06 µg/mL	<0.06 µg/mL	>64.00 µg/mL	1 µg/mL (≈ 1.13 µM)	–	–	–	–	–
CCC1OC(=O)C(C)C(=O)C(C)C(OC2OC(C)CC(N(C)C)C2O)C(C)(OC)CC(C)C(=O)C(C)C2N(CC3CCN(Cc4ccc(OC)nc4)C3)C(=O)OC12C (centres unmarked) [11.07]	–	–	–	–	–	<0.06 µg/mL	0.25 µg/mL (≈ 0.306 µM)	<0.06 µg/mL	16 µg/mL (≈ 19.6 µM)	1 µg/mL (≈ 1.22 µM)
CCC1OC(=O)C(C)C(=O)C(C)C(OC2OC(C)CC(N(C)C)C2O)C(C)(OC)CC(C)C(=O)C(C)C2N(CC3CCCN3C(=O)c3ccc4ccccc4n3)C(=O)OC12C (centres unmarked) [10.08]	–	–	–	–	–	<0.06 µg/mL	2 µg/mL (≈ 2.35 µM)	<0.06 µg/mL	>64.00 µg/mL	2 µg/mL (≈ 2.35 µM)
CCC1OC(=O)C(C)C(=O)C(C)C(OC2OC(C)CC(N(C)C)C2O)C(C)(OC)CC(C)C(=O)C(C)C2N(C3CN(Cc4cccnc4)C3)C(=O)OC12C (centres unmarked) [Example 1.03, (pyridin-3-yl)methyl]	<0.06 µg/mL	2 µg/mL (≈ 2.64 µM)	<0.06 µg/mL	>64.00 µg/mL	0.5 µg/mL (≈ 0.659 µM)	–	–	–	–	–
CCC1OC(=O)C(C)C(=O)C(C)C(OC2OC(C)CC(N(C)C)C2O)C(C)(OC)CC(C)C(=O)C(C)C2N(CC3C4CN(C(=O)c5cccnc5)CC43)C(=O)OC12C (centres unmarked) [16.02]	–	–	–	–	–	3.12 µg/mL (≈ 3.84 µM)	0.78 µg/mL (≈ 0.959 µM)	0.02 µg/mL (≈ 0.0246 µM)	>100.00 µg/mL	0.78 µg/mL (≈ 0.959 µM)
CCC1OC(=O)C(C)C(=O)C(C)C(OC2OC(C)CC(N(C)C)C2O)C(C)(OC)CC(C)C(=O)C(C)C2N(CC3CCN(Cc4c[nH]nn4)C3)C(=O)OC12C (centres unmarked) [13.07]	–	–	–	–	–	>64.00 µg/mL	4 µg/mL (≈ 5.15 µM)	<0.06 µg/mL	>64.00 µg/mL	2 µg/mL (≈ 2.57 µM)
CCC1OC(=O)C(C)C(=O)C(C)C(OC2OC(C)CC(N(C)C)C2O)C(C)(OC)CC(C)C(=O)C(C)C2N(C3CN(Cc4ccc(Cl)cc4Cl)C3)C(=O)OC12C (centres unmarked) [Example 1.103, 3-descladinosyl-11,12-dideoxy-6-O-methyl-3-oxo-12,11-(oxycarbonyl-(1-(2,4-dichlorobenzene-1-methyl)-azetidin-3-yl)-imino)-erythromycin A]	<0.063 µg/mL	0.125 µg/mL (≈ 0.151 µM)	<0.063 µg/mL	16 µg/mL (≈ 19.4 µM)	0.25 µg/mL (≈ 0.302 µM)	–	–	–	–	–
CCC1OC(=O)C(C)C(=O)C(C)C(OC2OC(C)CC(N(C)C)C2O)C(C)(OC)CC(C)C(=O)C(C)C2N(C3CN(S(=O)(=O)c4cccc5nccnc45)C3)C(=O)OC12C (centres unmarked) [Example 3.93, 3-descladinosyl-11,12-dideoxy-4-O-methyl-3-oxo-12,11-(oxycarbonyl-(1-(quinoxaline-5-sulfonyl)-azetidin-3-yl)-imino)-erythromycin A]	<0.06 µg/mL	<0.06 µg/mL	<0.06 µg/mL	1 µg/mL (≈ 1.16 µM)	0.25 µg/mL (≈ 0.291 µM)	–	–	–	–	–
CCC1OC(=O)C(C)C(=O)C(C)C(OC2OC(C)CC(N(C)C)C2O)C(C)(OC)CC(C)C(=O)C(C)C2N(C3CN(Cc4c[nH]nc4-c4ccc(F)cc4)C3)C(=O)OC12C (centres unmarked) [Example 1.42, (1H-3-[4-fluorophenyl]-pyrazol-4-yl)methyl]	<0.06 µg/mL	0.25 µg/mL (≈ 0.297 µM)	<0.06 µg/mL	>64.00 µg/mL	2 µg/mL (≈ 2.38 µM)	–	–	–	–	–
CC[C@H]1OC(=O)[C@H](C)C(=O)[C@H](C)[C@@H](O[C@@H]2O[C@H](C)C[C@H](N(C)C)[C@H]2O)[C@](C)(OC)C[C@@H](C)C(=O)[C@H](C)[C@H]2N(C3CN(C(C)c4ccnc5ccccc45)C3)C(=O)O[C@]12C (some centres unmarked) [Example 1.62, 3-descladinosyl-11,12-dideoxy-6-O-methyl-3-oxo-12,11-(oxycarbonyl-(1-(1-(quinolin-4-yl)-ethyl)-azetidin-3-yl)-imino)-erythromycin A]	<0.06 µg/mL	<0.06 µg/mL	<0.06 µg/mL	2 µg/mL (≈ 2.43 µM)	0.5 µg/mL (≈ 0.608 µM)	–	–	–	–	–
CCC1OC(=O)C(C)C(=O)C(C)C(OC2OC(C)CC(N(C)C)C2O)C(C)(OC)CC(C)C(=O)C(C)C2N(C3CN(S(=O)(=O)c4ccc5ncsc5c4)C3)C(=O)OC12C (centres unmarked) [Example 3.79]	<0.06 µg/mL	<0.06 µg/mL	<0.06 µg/mL	1 µg/mL (≈ 1.16 µM)	0.25 µg/mL (≈ 0.289 µM)	–	–	–	–	–
CCC1OC(=O)C(C)C(=O)C(C)C(OC2OC(C)CC(N(C)C)C2O)C(C)(OC)CC(C)C(=O)C(C)C2N(C3CN(Cc4c(OC)ccc5ccccc45)C3)C(=O)OC12C (centres unmarked) [Example 1.86, 3-descladinosyl-11,12-dideoxy-6-O-methyl-3-oxo-12,11-(oxycarbonyl-(1-(2-methoxynaphthalene-1-methyl)-azetidin-3-yl)-imino)-erythromycin A]	0.125 µg/mL (≈ 0.149 µM)	<0.063 µg/mL	<0.063 µg/mL	1 µg/mL (≈ 1.19 µM)	1 µg/mL (≈ 1.19 µM)	–	–	–	–	–
CCC1OC(=O)C(C)C(=O)C(C)C(OC2OC(C)CC(N(C)C)C2O)C(C)(OC)CC(C)C(=O)C(C)C2N(C3CN(S(=O)(=O)c4cccc(F)c4)C3)C(=O)OC12C (centres unmarked) [Example 3.08, 3-fluorobenzenesulfonyl]	<0.06 µg/mL	<0.06 µg/mL	<0.06 µg/mL	16 µg/mL (≈ 19.4 µM)	0.5 µg/mL (≈ 0.605 µM)	–	–	–	–	–
CC[C@H]1OC(=O)[C@H](C)[C@@H](OC(=O)N2CCCC2)[C@H](C)[C@@H](O[C@@H]2O[C@H](C)C[C@H](N(C)C)[C@H]2O)[C@](C)(OC)C[C@@H](C)C(=O)[C@H](C)[C@H]2N(CC3CN(Cc4c[nH]c5ncccc45)C3)C(=O)O[C@]12C [Example 5.10, 3-descladinosyl-11,12-dideoxy-6-O-methyl-12,11-(oxycarbonyl-(1-((1H-pyrrolo[2,3-b]pyridin-3-yl)-methyl)-(azetidin-3-yl)-methyl)-imino)-3-(pyrrolidine-1-carbonyl)-erythromycin A]	<0.06 µg/mL	<0.06 µg/mL	<0.06 µg/mL	2 µg/mL (≈ 2.2 µM)	1 µg/mL (≈ 1.1 µM)	–	–	–	–	–
CCC1OC(=O)C(C)C(=O)C(C)C(OC2OC(C)CC(N(C)C)C2O)C(C)(OC)CC(C)C(=O)C(C)C2N(CC3CCCN3C(=O)c3cc4ccccc4cn3)C(=O)OC12C.O=CO (centres unmarked) [10.09]	–	–	–	–	–	<0.06 µg/mL	1 µg/mL	<0.06 µg/mL	>64.00 µg/mL	2 µg/mL
CCC1OC(=O)C(C)C(=O)C(C)C(OC2OC(C)CC(N(C)C)C2O)C(C)(OC)CC(C)C(=O)C(C)C2N(C3CN(S(=O)(=O)c4ccc5c(c4)CC(=O)N5)C3)C(=O)OC12C (centres unmarked) [Example 3.42, 3-descladinosyl-11,12-dideoxy-6-O-methyl-3-oxo-12,11-(oxycarbonyl-(1-(2-oxoindoline-5-sulfonyl)-azetidin-3-yl)-imino)-erythromycin A]	<0.06 µg/mL	0.5 µg/mL (≈ 0.579 µM)	<0.06 µg/mL	2 µg/mL (≈ 2.32 µM)	2 µg/mL (≈ 2.32 µM)	–	–	–	–	–
CCC1OC(=O)C(C)(F)C(=O)C(C)C(OC2OC(C)CC(N(C)C)C2O)C(C)(OC)CC(C)C(=O)C(C)C2N(C3CN(Cc4ccnc5ncccc45)C3)C(=O)OC12C (centres unmarked) [Example 1.33, 3-descladinosyl-11,12-dideoxy-2-fluoro-6-O-methyl-3-oxo-12,11-(oxycarbonyl-(1-((1,8-naphthyridin-4-yl)-methyl)-azetidin-3-yl)-imino)-erythromycin A]	<0.06 µg/mL	<0.06 µg/mL	<0.06 µg/mL	0.25 µg/mL (≈ 0.302 µM)	0.25 µg/mL (≈ 0.302 µM)	–	–	–	–	–
